Test results as given in PubChem BioAssay AID1745844 (Carcinogenic Potency Database (CPDB), 2022).
Several values for one entry are separate records, joined by “and”; a condition that tells them apart may be missing. Identical values can stand only once. Activity calls are given as the source filed them. The rule behind the calls is not given here.

Test system: rodent lifetime carcinogenesis bioassay, tumor incidence TD50
Experiment: chronic cancer bioassays in animals – CPDB, compiled studies (AID 1745844)

For `ClC=C(Cl)Cl`, the TD50 (mouse, strain Swiss, males, inhaled, site: any site (literature study), lesion: several types, types named in the paper, dosed 78 weeks, study length 145 weeks) was 8070 mg/kg/day, the TD50 (mouse, strain Swiss, males, inhaled, site: liver, lesion: hepatoma, dosed 78 weeks, study length 145 weeks) was 3910 mg/kg/day and the TD50 (mouse, strain Swiss, males, inhaled, site: lung, lesion: one or several types, types not named, dosed 78 weeks, study length 145 weeks) was 10100 mg/kg/day. The TD50 (rat, strain ACI, females, by gavage, site: any site (literature study), lesion: several types, types named in the paper, dosed 103 weeks, study length 104 weeks) was 61700 mg/kg/day, the TD50 (rat, strain ACI, females, by gavage, site: kidney, lesion: adenocarcinoma, NOS + tubular-cell adenocarcinoma, dosed 103 weeks, study length 104 weeks) was 7800 mg/kg/day and the TD50 (rat, strain ACI, females, by gavage, site: kidney, lesion: adenocarcinoma, NOS + tubular-cell adenoma + tubular-cell adenocarcinoma, dosed 103 weeks, study length 104 weeks) was 3760 mg/kg/day. It also gave a TD50 (rat, strain ACI, males, by gavage, site: any site (literature study), lesion: several types, types named in the paper, dosed 103 weeks, study length 104 weeks) of 820 mg/kg/day, a TD50 (rat, strain ACI, males, by gavage, site: kidney, lesion: tubular-cell adenocarcinoma, dosed 103 weeks, study length 104 weeks) of 12000 mg/kg/day and a TD50 (rat, strain ACI, males, by gavage, site: liver, lesion: hepatocellular adenoma + hepatocellular carcinoma + neoplastic nodule, dosed 103 weeks, study length 104 weeks) of 9400 mg/kg/day. The TD50 (rat, strain August, females, by gavage, site: kidney, lesion: tubular-cell adenoma + tubular-cell adenocarcinoma, dosed 103 weeks, study length 104 weeks) was 2240 mg/kg/day, the TD50 (rat, strain August, males, by gavage, site: kidney, lesion: tubular-cell adenocarcinoma, dosed 103 weeks, study length 104 weeks) was 10800 mg/kg/day and the TD50 (rat, strain August, males, by gavage, site: kidney, lesion: tubular-cell adenoma + tubular-cell adenocarcinoma, dosed 103 weeks, study length 104 weeks) was 3810 mg/kg/day. For the same molecule, the TD50 (rat, strain August, males, by gavage, site: liver, lesion: hepatocellular adenoma + hepatocellular carcinoma + neoplastic nodule, dosed 103 weeks, study length 104 weeks) was 6440 mg/kg/day, the TD50 (rat, strain August, males, by gavage, site: subcutaneous tissue, lesion: sarcoma, NOS + sarcoma, NOS, dosed 103 weeks, study length 104 weeks) was 3730 mg/kg/day and the TD50 (rat, strain Charles River CD (Sprague-Dawley), females, inhaled, site: kidney, lesion: tubular-cell adenocarcinoma, dosed 104 weeks, study length 107 weeks) was 10700 mg/kg/day. The TD50 (rat, strain Charles River CD (Sprague-Dawley), females, inhaled, site: liver, lesion: several types, types named in the paper, dosed 104 weeks, study length 107 weeks) was 12300 mg/kg/day, the TD50 (rat, strain Charles River CD (Sprague-Dawley), females, inhaled, site: mammary gland, lesion: fibroadenoma, dosed 104 weeks, study length 107 weeks) was 982 mg/kg/day and the TD50 (rat, strain Fischer 344, females, by gavage, site: any site (literature study), lesion: several types, types named in the paper, dosed 103 weeks, study length 103 weeks) was 5710 mg/kg/day (inactive). It also gave a TD50 (rat, strain Fischer 344, females, by gavage, site: kidney, lesion: tubular-cell adenocarcinoma, dosed 103 weeks, study length 103 weeks) of 23000 mg/kg/day, a TD50 (rat, strain Fischer 344, females, by gavage, site: liver, lesion: hepatocellular adenoma + hepatocellular carcinoma + neoplastic nodule, dosed 103 weeks, study length 103 weeks) of 9980 mg/kg/day and a TD50 (rat, strain Fischer 344, males, by gavage, site: any site (literature study), lesion: several types, types named in the paper, dosed 103 weeks, study length 103 weeks) of 2240 mg/kg/day. For the same molecule, the TD50 (rat, strain Fischer 344, males, by gavage, site: kidney, lesion: tubular-cell adenocarcinoma, dosed 103 weeks, study length 103 weeks) was 3920 mg/kg/day, the TD50 (rat, strain Fischer 344, males, by gavage, site: kidney, lesion: tubular-cell adenoma + tubular-cell adenocarcinoma, dosed 103 weeks, study length 103 weeks) was 2780 mg/kg/day and the TD50 (rat, strain Fischer 344, males, by gavage, site: liver, lesion: hepatocellular adenoma + hepatocellular carcinoma + neoplastic nodule, dosed 103 weeks, study length 103 weeks) was 12200 mg/kg/day. The TD50 (rat, strain Fischer 344, males, by gavage, site: peritoneum, lesion: mesothelioma, NOS + mesothelioma, malignant, dosed 103 weeks, study length 103 weeks) was 1490 mg/kg/day, the TD50 (rat, strain Fischer 344, males, by gavage, site: peritoneum, lesion: mesothelioma, malignant, dosed 103 weeks, study length 103 weeks) was 1490 mg/kg/day and the TD50 (rat, strain Han:WIST, females, inhaled, site: any site (literature study), lesion: benign tumor, dosed 78 weeks, study length 156 weeks) was 2120 mg/kg/day (inactive). For the same molecule, the carcinogen call (rat, strain Han:WIST, females, inhaled, site: any site (literature study), lesion: malignant tumor, dosed 78 weeks, study length 156 weeks) was “negative (inactive)”, the TD50 (rat, strain Han:WIST, females, inhaled, site: kidney, lesion: tubular-cell adenoma, dosed 78 weeks, study length 156 weeks) was 5500 mg/kg/day (inactive) and the carcinogen call (rat, strain Han:WIST, females, inhaled, site: liver, lesion: hepatocellular adenoma, dosed 78 weeks, study length 156 weeks) was “negative (inactive)”. For the same molecule, the carcinogen call (rat, strain Han:WIST, males, inhaled, site: any site (literature study), lesion: benign tumor, dosed 78 weeks, study length 156 weeks) was “negative (inactive)”, the TD50 (rat, strain Han:WIST, males, inhaled, site: any site (literature study), lesion: malignant tumor, dosed 78 weeks, study length 156 weeks) was 351 mg/kg/day (inactive) and the TD50 (rat, strain Han:WIST, males, inhaled, site: kidney, lesion: tubular-cell adenocarcinoma, dosed 78 weeks, study length 156 weeks) was 3850 mg/kg/day (inactive). The TD50 (rat, strain Han:WIST, males, inhaled, site: kidney, lesion: tubular-cell adenoma, dosed 78 weeks, study length 156 weeks) was 10700 mg/kg/day (inactive), the carcinogen call (rat, strain Han:WIST, males, inhaled, site: liver, lesion: hepatocellular adenoma, dosed 78 weeks, study length 156 weeks) was “negative (inactive)” and the TD50 (rat, strain Marshall, females, by gavage, site: any site (literature study), lesion: several types, types named in the paper, dosed 103 weeks, study length 104 weeks) was 709 mg/kg/day. The TD50 (rat, strain Marshall, females, by gavage, site: kidney, lesion: tubular-cell adenocarcinoma, dosed 103 weeks, study length 104 weeks) was 4110 mg/kg/day, the TD50 (rat, strain Marshall, females, by gavage, site: kidney, lesion: tubular-cell adenoma + tubular-cell adenocarcinoma, dosed 103 weeks, study length 104 weeks) was 4370 mg/kg/day and the TD50 (rat, strain Marshall, males, by gavage, site: any site (literature study), lesion: several types, types named in the paper, dosed 103 weeks, study length 104 weeks) was 199 mg/kg/day. It also gave a TD50 (rat, strain Marshall, males, by gavage, site: kidney, lesion: tubular-cell adenocarcinoma, dosed 103 weeks, study length 104 weeks) of 8000 mg/kg/day, a TD50 (rat, strain Marshall, males, by gavage, site: kidney, lesion: tubular-cell adenoma + tubular-cell adenocarcinoma, dosed 103 weeks, study length 104 weeks) of 5710 mg/kg/day and a TD50 (rat, strain Marshall, males, by gavage, site: testis, lesion: interstitial-cell tumor + interstitial-cell tumor, malignant, dosed 103 weeks, study length 104 weeks) of 153 mg/kg/day. For the same molecule, the TD50 (rat, strain Marshall, males, by gavage, site: testis, lesion: interstitial-cell tumor, malignant, dosed 103 weeks, study length 104 weeks) was 6540 mg/kg/day, the TD50 (rat, strain Osborne-Mendel, females, by gavage, site: adrenal gland, lesion: cortical adenoma, dosed 103 weeks, study length 104 weeks) was 556 mg/kg/day and the TD50 (rat, strain Osborne-Mendel, females, by gavage, site: any site (literature study), lesion: several types, types named in the paper, dosed 78 weeks, study length 110 weeks) was 5620 mg/kg/day (inactive). The TD50 (rat, strain Osborne-Mendel, females, by gavage, site: any site (literature study), lesion: several types, types named in the paper, dosed 103 weeks, study length 104 weeks) was 372 mg/kg/day, the TD50 (rat, strain Osborne-Mendel, females, by gavage, site: kidney, lesion: tubular-cell adenoma, dosed 103 weeks, study length 104 weeks) was 10700 mg/kg/day and the TD50 (rat, strain Osborne-Mendel, females, by gavage, site: liver, lesion: hepatocellular adenoma + hepatocellular carcinoma + neoplastic nodule, dosed 103 weeks, study length 104 weeks) was 3500 mg/kg/day. For the same molecule, the TD50 (rat, strain Osborne-Mendel, males, by gavage, site: any site (literature study), lesion: several types, types named in the paper, dosed 78 weeks, study length 110 weeks) was 16000 mg/kg/day, the TD50 (rat, strain Osborne-Mendel, males, by gavage, site: any site (literature study), lesion: several types, types named in the paper, dosed 103 weeks, study length 104 weeks) was 1490 mg/kg/day and the TD50 (rat, strain Osborne-Mendel, males, by gavage, site: kidney, lesion: tubular-cell adenocarcinoma, dosed 78 weeks, study length 110 weeks) was 7220 mg/kg/day. The TD50 (rat, strain Osborne-Mendel, males, by gavage, site: kidney, lesion: tubular-cell adenoma + tubular-cell adenocarcinoma, dosed 103 weeks, study length 104 weeks) was 628 mg/kg/day, the TD50 (rat, strain Osborne-Mendel, males, by gavage, site: kidney, lesion: tubular-cell adenoma, dosed 103 weeks, study length 104 weeks) was 628 mg/kg/day and the TD50 (rat, strain Osborne-Mendel, males, by gavage, site: liver, lesion: hepatocellular adenoma + hepatocellular carcinoma + neoplastic nodule, dosed 103 weeks, study length 104 weeks) was 8950 mg/kg/day. It also gave a TD50 (rat, strain Sprague-Dawley, females, inhaled, site: any site (literature study), lesion: several types, types named in the paper, dosed 104 weeks, study length 159 weeks) of 3890 mg/kg/day, a TD50 (rat, strain Sprague-Dawley, females, inhaled, site: kidney, lesion: several types, types named in the paper, dosed 104 weeks, study length 159 weeks) of 41300 mg/kg/day and a TD50 (rat, strain Sprague-Dawley, females, inhaled, site: kidney, lesion: tubular-cell adenocarcinoma, dosed 104 weeks, study length 159 weeks) of 43200 mg/kg/day. It also gave a TD50 (rat, strain Sprague-Dawley, females, inhaled, site: liver, lesion: angiosarcoma, dosed 104 weeks, study length 159 weeks) of 8010 mg/kg/day, a TD50 (rat, strain Sprague-Dawley, females, inhaled, site: liver, lesion: neoplastic nodule, dosed 104 weeks, study length 159 weeks) of 9680 mg/kg/day and a TD50 (rat, strain Sprague-Dawley, males, by gavage, site: all sites, lesion: leukemia, dosed 52 weeks, study length 140 weeks) of 428 mg/kg/day. The TD50 (rat, strain Sprague-Dawley, males, by gavage, site: any site (literature study), lesion: malignant tumor, dosed 52 weeks, study length 140 weeks) was 818 mg/kg/day, the TD50 (rat, strain Sprague-Dawley, males, inhaled, site: all sites, lesion: leukemia, dosed 104 weeks, study length 159 weeks) was 5930 mg/kg/day and 2810 mg/kg/day and the TD50 (rat, strain Sprague-Dawley, males, inhaled, site: kidney, lesion: tubular-cell adenocarcinoma, dosed 104 weeks, study length 159 weeks) was 9490 mg/kg/day and 12400 mg/kg/day. For the same molecule, the TD50 (rat, strain Sprague-Dawley, males, inhaled, site: kidney, lesion: tubular-cell adenoma, dosed 104 weeks, study length 159 weeks) was 29200 mg/kg/day, the TD50 (rat, strain Sprague-Dawley, males, inhaled, site: liver, lesion: neoplastic nodule, dosed 104 weeks, study length 159 weeks) was 30700 mg/kg/day and the TD50 (rat, strain Sprague-Dawley, males, inhaled, site: mammary gland, lesion: one or several types, types not named, dosed 104 weeks, study length 159 weeks) was 120 mg/kg/day. For the same molecule, the TD50 (rat, strain Sprague-Dawley, males, inhaled, site: testis, lesion: Leydig-cell tumor, dosed 104 weeks, study length 159 weeks) was 557 mg/kg/day and 835 mg/kg/day.
